Reference: US7687252B2, “Protein crystal of human cytochrome P450 aromatase and uses thereof” (Hauptman-Woodward Medcial Research Institute, Inc., priority 2007, dated 2010)
“Also recorded” adds a separate entry of the source.

Columns and labels:
[1] = tested on: MCF-7 cells; assay: Anti-proliferation assay in a MCF-7 cell line expressing P450arom (MTT); assay type: cell-based, human
[2] = biological target: T1, P450arom (Homo sapiens, UniProt P11511); design: Crystallization and structural investigation of the full-length native P450arom; from tissue; host or cells: human term placenta (aromatase); liver (CPR, bovine or rat); conditions: previously determined [51]; cited from earlier work
T1 sequence (P11511 1-503): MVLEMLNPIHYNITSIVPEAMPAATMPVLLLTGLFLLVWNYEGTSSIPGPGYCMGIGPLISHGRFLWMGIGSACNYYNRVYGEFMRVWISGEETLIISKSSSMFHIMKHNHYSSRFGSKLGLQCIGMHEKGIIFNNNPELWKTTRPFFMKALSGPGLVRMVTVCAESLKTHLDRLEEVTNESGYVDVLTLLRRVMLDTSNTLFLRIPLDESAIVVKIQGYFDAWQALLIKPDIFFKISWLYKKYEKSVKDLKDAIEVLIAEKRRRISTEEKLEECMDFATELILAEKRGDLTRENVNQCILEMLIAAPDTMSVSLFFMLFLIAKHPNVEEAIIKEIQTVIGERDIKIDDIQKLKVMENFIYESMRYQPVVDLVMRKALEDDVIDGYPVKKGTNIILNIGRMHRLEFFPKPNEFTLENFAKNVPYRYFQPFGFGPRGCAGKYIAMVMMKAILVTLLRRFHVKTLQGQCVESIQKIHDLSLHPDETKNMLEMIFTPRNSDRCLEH

[3] = biological target: T1, P450arom; assay: Absorption spectrum (Soret band) of P450arom-ligand complexes; design: Crystallization and structural investigation of the full-length native P450arom; from tissue; conditions: absorption spectrum of the P450arom complex
[4] = biological target: T1, P450arom; assay: Detergent screen: P450arom enzyme activity and time stability; assay type: biochemical; design: Crystallization and structural investigation of the full-length native P450arom; from tissue; host or cells: human term placenta (aromatase); liver (CPR, bovine or rat); conditions: detergent 1-3 mM, exchanged for Em on HA column
[5] = biological target: T1, P450arom; assay: Inhibition of P450arom enzyme activity (3H-water release from [1β-3H, 4-14C] androstenedione, enzyme reconstituted with CPR); assay type: biochemical; design: Crystallization and structural investigation of the full-length native P450arom; from tissue; host or cells: human term placenta (aromatase); liver (CPR, bovine or rat); conditions: P450arom 20-30 mg/ml, final inhibitor 0.5-1.0 mM, crystallization protocol
[6] = tested on: Aromatase; assay: Assay of enzyme activity (specific activity) of purified aromatase; assay type: biochemical, human; conditions: in BNM after detergent exchange
[7] = biological target: T2, Aromatase (Homo sapiens, UniProt P11511); assay: as above; assay type: biochemical
T2 construct: Crystallization and structural investigation of the full-length native P450arom; from tissue; host or cells: human term placenta (aromatase); liver (CPR, bovine or rat)
T2 sequence (P11511 1-503): T1 sequence (P11511 1-503)

For 4-hydroxytamoxifen, the “A-stimulated growth of the MCF-7 cells” value ([1]; androstenedione (A) stimulated) was “decreased”.

For `CCCCCCCCO[C@@H]1O[C@H](CO)[C@@H](O)[C@H](O)[C@H]1O` [BOG, n-octyl-β-D-glucopyranoside], the “effect of detergent on P450arom activity” value [2] is given as “destroy P450arom activity rapidly”.

Molecule `CC(C)(C#N)c1cc(Cn2cncn2)cc(C(C)(C)C#N)c1` [anastrozole] has a Soret band [3] of 421 nm.

With `CCCCCCCCO[C@@H]1O[C@H](CO)[C@@H](O[C@H]2O[C@H](CO)[C@@H](O)[C@H](O)[C@H]2O)[C@H](O)[C@H]1O` [BOM, n-octyl-β-D-maltopyranoside] the “effect of detergent on enzyme activity and time stability” value [4] was “maintained enzyme activity and time stability at least as well as BDM”.

In the case of `CCCCCCCCCCCCO[C@@H]1O[C@H](CO)[C@@H](O[C@H]2O[C@H](CO)[C@@H](O)[C@H](O)[C@H]2O)[C@H](O)[C@H]1O` [BDM, n-dodecyl-β-D-maltopyranoside], the “effect of detergent on P450arom activity” value [2] is listed as “maintained P450arom activity for weeks at 4 °C”.

For `C[C@]12CCC(=O)C=C1CC[C@@H]1[C@@H]2CC[C@]2(C)C(=O)CC[C@@H]12` [androstenedione], the “growth of the MCF-7 cells” value ([1]; substrate steroid alone) was “stimulates the growth of the MCF-7 cells in a concentration-dependent manner” and the Soret band [3] was 394 nm.

In the case of `N#Cc1ccc(C(c2ccc(C#N)cc2)n2cncn2)cc1` [letrozole], the DHEA-stimulated cell growth ([1]; DHEA stimulated MCF-7 cells) is reported as “inhibits the growth of DHEA-stimulated cell growth”, the Soret band [3] is reported as 421 nm and the “inhibition of P450arom” value [5] is reported as ~100%.

With `CCCCCCCCCO[C@@H]1O[C@H](CO)[C@@H](O[C@H]2O[C@H](CO)[C@@H](O)[C@H](O)[C@H]2O)[C@H](O)[C@H]1O` [BNM, n-nonyl-β-D-maltopyranoside] the “effect of detergent on enzyme activity and time stability” value [4] was “maintained enzyme activity and time stability at least as well as BDM; also recorded: maintained the full P450arom activity”.

B1: Del38arom: amino-terminal trans-membrane domain deleted P450arom, bacterial expression clone (protein, UniProt P11511 39-503, looked up, fragment)
chain: WNYEGTSSIPGPGYCMGIGPLISHGRFLWMGIGSACNYYNRVYGEFMRVWISGEETLIISKSSSMFHIMKHNHYSSRFGSKLGLQCIGMHEKGIIFNNNPELWKTTRPFFMKALSGPGLVRMVTVCAESLKTHLDRLEEVTNESGYVDVLTLLRRVMLDTSNTLFLRIPLDESAIVVKIQGYFDAWQALLIKPDIFFKISWLYKKYEKSVKDLKDAIEVLIAEKRRRISTEEKLEECMDFATELILAEKRGDLTRENVNQCILEMLIAAPDTMSVSLFFMLFLIAKHPNVEEAIIKEIQTVIGERDIKIDDIQKLKVMENFIYESMRYQPVVDLVMRKALEDDVIDGYPVKKGTNIILNIGRMHRLEFFPKPNEFTLENFAKNVPYRYFQPFGFGPRGCAGKYIAMVMMKAILVTLLRRFHVKTLQGQCVESIQKIHDLSLHPDETKNMLEMIFTPRNSDRCLEH
For B1, the specific activity [6] was < 1 nmol/min/mg.

B2: Aromatase: human cytochrome P450 aromatase purified from term placenta, SEQ ID NO:1 (protein, listed as Homo sapiens)
chain: T1 sequence (P11511 1-503)
In the case of B2, the turnover number ([7]; calculated) is reported as ~6 min⁻¹, the specific activity retained ([7]; in detergents BNM and BDM, 4° C. for weeks) is reported as 80-90% and the “specific activity of the purified enzyme” value ([7]; typical / over a large number of purifications, androstenedione as substrate) is reported as 20 to 100 nmol/min/mg. The specific activity ([7]; with Em as the detergent) was 50 to 100 nmol/min/mg and the specific activity [6] was 10 to 50 nmol/min/mg.
